Assay results as given in paper PMC9586926, “An efflux-susceptible antibiotic-adjuvant with systemic efficacy against mouse infections” (Scientific Reports, 2022).
Where a SMILES comes first, the peptide text is derived from it. [ ]: non-standard residue; d: D form. The star is where a group is joined. 12Ado = NCCCCCCCCCCCC(=O)O; Decanoyl = CCCCCCCCCC(=O)*; Dab = NCC[C@H](N)C(=O)O

Legend:
[1] = Binding to lipopolysaccharide, displacement of mono-dansylated polymyxin B; design: species or system E. coli; settings: 2 µM DPMB, 3 µg/ml LPS, 1.5 h, compared with PMB; two independent experiments
Description: Affinity to lipopolysaccharide (LPS) was assessed using fluorescent measurements of displaced mono-dansylated polymyxin B (DPMB)[68]. 180 µl of 5 mM HEPES containing 2 µM DPMB and 3 µg/ml LPS (from E. coli) were dispensed into black microtiter plates and mixed with 20 µl of HEPES containing serial twofold dilutions of lipopeptides. Plates were incubated in the dark for 1.5 h at room-temperature and fluorescence (excitation: 340 nm; emission: 485 nm) was recorded immediately thereafter (BioTek Instruments Synergy HT; Winooski, VT, USA).

[2] = test system: UPEC CFT073; assay: Urinary-tract infection model; assay type: in vivo, mice
Description: The study is reported in accordance with ARRIVE guidelines.
Lipopeptides potential application in monotherapy and/or combination-therapies was explored with two infection models. In the peritonitis-sepsis model, mice (n = 10 per group) were first rendered neutropenic by two intraperitoneal (I.P.) injections of 0.3 ml containing 150 mg/kg and 100 mg/kg cyclophosphamide, administered 4 days and 1 day before the experiment, respectively. […] Mice survival was recorded for up to 7 days. In a variant assay, bacteria in PBS (1.4 × 10^6) were pre-treated with 10 µM lipopeptides for 15 min, similarly administered, and mice survival was recorded for up to 3 days. In the urinary-tract infection (UTI) model, mice (N = 5 mice per group) were anesthetized by a single I.P. injection (0.2 ml) containing a mixture of ketamine (100 mg/kg) and xylazine (5 mg/kg). Following application of an analgesic 2% lidocaine gel on their penises, mice were infected intra-urethraly using a 24-gauge catheter with 1.2 × 10^8 CFU/mouse (0.05 ml) and treated with the vehicle control (S.C., 1 h post-infection), 2 mg/kg rifampin (oral gavage, immediately before anesthesia), 7.5 mg/kg q.i.d. lipopeptides (S.C., starting 1 h post-infection), or both. Mice were sacrificed 24 h post-infection, their bladder and kidneys aseptically excised, suspended in 5 ml of sterile PBS, homogenized for 3 min using a bench-top homogenizer, serially tenfold diluted in saline, plated on LB agar, and incubated over-night at 37 °C for enumeration.

[3] = test system: E. coli 25922; assay type: cell-based, Escherichia coli
Description: MIC was determined according to the broth microdilution method: antimicrobials were subjected to serial twofold dilutions in LB medium, and incubated with 5 × 10^5 CFU/ml of bacteria (final volume of 200 µl) for 18–24 h at 37 °C. Then, O.D.620 nm was measured (BioTek Instruments Synergy HT; Winooski, VT, USA), and the MIC was defined as the lowest antimicrobial concentration for which no increase in O.D.620 nm was evident, compared to the untreated control.
Lipopeptides and antibiotics combinations were assessed using a modified version of the checkerboard titration method: Antibiotics MIC was determined in LB medium containing sub-inhibitory lipopeptide concentrations. The sensitization factor (SF)[46] was then calculated by SF = MICA/MICC, where “MICA” is the antibiotic MIC in absence of an adjuvant and “MICC “ is the antibiotic MIC in presence of an adjuvant, for a specified adjuvant concentration. Combinations were classified as synergistic when antibiotics MIC were decreased by > 4 folds. Alternatively, the fractional inhibitory concentration index (FICI) was calculated by FICI = MICC1/MICA1 + MICC2/MICA2, where “MICC1” and “MICC2” respectively specify the antibiotic and the adjuvant MIC values upon their combination, whereas “MICA1” and “MICA2” respectively specify the antibiotic and the adjuvant MIC values when tested individually. Combinations were classified as synergistic for FICI < 0.5.

[4] = test system: E. coli 25922; assay: Cytoplasmic membrane depolarization, DiSC3(5) fluorescence; assay type: cell-based, Escherichia coli; settings: C10BBc12B up to 10 µM; PMB 2.5 µM
Description: Lipopeptides aptitude to depolarize the CM was evaluated using fluorescent measurements of the transmembrane potential sensitive dye 3,3′-Dipropylthiadicarbocyanine iodide (DiSC3(5))[69]. Bacteria (O.D.600 nm = 0.1) were washed by centrifugation at 10,000 RCF for 5 min, supernatant aspiration, and pellet resuspension in 5 mM HEPES containing 20 mM glucose, 50 mM KCl and 0.2 mM EDTA (pH = 7.2). This suspension was mixed with DiSC3(5) (400 µM in DMSO) to reach a final DiSC3(5) concentration of 4 µM and was incubated in the dark for 1 h at 37 °C with shaking. Then, 180 µl of this mixture were dispensed into black microtiter plates and fluorescence was recorded (excitation: 622 nm; emission: 670 nm) at 37 °C with shaking until baseline stabilization (BioTek Instruments Synergy HT; Winooski, VT, USA). Finally, 20 µl of HEPES containing serial twofold dilutions of lipopeptides were added and fluorescence was recorded for up to 30 min at the same conditions.

[5] = […] S.C., mice plasma, UPLC-MS
Description: Animal procedures were reviewed and approved by the Institutional Animal Care and Use Committee (ethics no. IL-0800519, IL-0760711, IL-0550618, IL-0320320, IL-1270821) and performed in accordance with the “Guide for the Care and Use of Laboratory Animals”, published by the US National Research Council[70]. The study is reported in accordance with ARRIVE guidelines. All protocols employed 4–5-week-old male ICR mice, weighing 20–25 g (Envigo; Jerusalem, Israel). Mice were kept on a 12 h light/dark cycle and provided with food and water ad-libitum. At the designated experimental end-points mice were euthanized by means of CO2 asphyxiation. […]
To assess lipopeptides circulating concentrations, mice (N = 3 per group) were S.C. administered with lipopeptides solutions (0.2 ml), sacrificed at specified times afterwards and their blood was aseptically collected. […] 0.5 ml of the supernatant were diluted 2-folds with Milli-Q water and analyzed by UPLC-MS using a C18 column. Quantification was performed using a calibration-curve generated with similarly processed blood samples, initially spiked with known lipopeptide concentrations. […] Quantification was performed using a calibration-curve generated with fresh lipopeptide solutions of known concentrations prepared in Milli-Q water.

## CCCCCCCCCC(=O)N[C@@H](CCN)C(=O)N[C@@H](CCN)C(=O)NCCCCCCCCCCCC(=O)N[C@@H](CCN)C(N)=O [C10BBc12B, decanoyl-bis.diaminobutyrate-aminododecanoyl-diaminobutyrate-amide] (Decanoyl-[Dab][Dab][12Ado][Dab]-NH2)
[1]
  displacement of LPS-bound DPMB: inferior ability
[2]; 24 h post-infection, 2 mg/kg rifampin, 7.5 mg/kg q.i.d. C10BBc12B or both, n = 5
  bladder bacterial load: no reduction in bacterial load
[2]; single dose 7.5 or […] 1 h post infection, alone or in combination with rifampin
  efficacy of single dose regimen: essentially ineffective
[3]; 10 µM C10BBc12B ± 5 µg/ml PAβN, SF for rifampin
  relationship with EPI PAβN in rifampin potentiation: antagonistic relationship
[3]; E. coli, from isobologram data
  sensitization efficiency to rifampin: 65,000 folds
[4]
  CM depolarization (trans-membrane potential): unable to affect the trans-membrane potential
[5]
  time with antibiotics potentiating concentrations (≥ 2.5 µg/ml) maintained: > 2 h
[5]; n = 3 per time point
  time after which most lipopeptide cleared from the bloodstream: ~ 180 min
